In a melting point compilation (Tetko et al.; mined from patent text by program, amines drawn as free bases though some values may be those of a salt) one finds melting point data, which are given here for 86 molecules.

The structures appear in SMILES notation.

A word on the melting point: it is the temperature, or range, at which the solid turns liquid. `CNC(=O)C(=NOC)c1c(F)cccc1COc1ccccc1C` yielded a melting point of 93 °C. Molecule `COc1ccc2[nH]c3c(c2c1)C(C(=O)O)CCC3` (stereo unspecified) returned a melting point of 175 to 177 °C. `Cc1nc(N(C)C)n2ncc(-c3ccncc3)c2n1` displayed a melting point of 195 to 197 °C. The same measure for `C[C@]1(COc2ccc(N3CCN(c4ccc(OC(F)(F)F)cc4)CC3)cc2)Cn2cc([N+](=O)[O-])nc2O1`: 262 to 265 °C; for `Cc1occc(=O)c1OCc1ccccc1`: 51 to 52 °C; for `O=C(O)CC(Br)C(Br)c1ccc(-c2ccccc2)cc1` (stereo unspecified): 200 to 203 °C. `Cc1ccc(C(=O)NC(NC(=NC#N)Nc2cccnc2)C(Cl)(Cl)Cl)cc1` (stereo unspecified) had a melting point of 165 to 166 °C. `CCOc1ccc([N+](=O)[O-])nc1C` gave a melting point of 82 to 84 °C. On to `COC(=O)c1ccc(C(=O)CC(=O)/C=C/c2ccc(O)c(OC)c2)cc1`, for which the melting point lay within 187 to 189 °C. In turn, `CCCc1c(OCCCCCCCCCCC(=O)O)ccc(C(C)=O)c1O` had a melting point of 57 to 58 °C.

In the case of `O=C(O)c1coc(-c2ccc(Cl)c(C(=O)NCC34CC5CC(CC(C5)C3)C4)c2)n1`, the melting point is 254 to 257 °C. Then `CCOc1ccc(CC(CO)NC(=O)c2ccnc(Br)c2)cc1OCC` (stereo unspecified), with 97 to 99 °C; and `CC(C)C(C)C(=O)NC(C)(Cc1c[nH]c2ccccc12)C(=O)NCCc1ccccc1` (stereo unspecified), with 104 to 109 °C. Molecule `CN(CCCCNC(=O)c1ccc2ccccc2c1)C1CCc2ncsc2C1` (stereo unspecified) displayed a melting point of 122 °C. The molecule `O=C(O)CNC(=O)C=C(c1ccc(Cl)cc1)c1ccc(Cl)cc1` yielded a melting point of 166 to 168 °C. On to `Cc1nnc(-c2cc3c(OCCCN4CCC(c5ccc6c(c5)OCO6)CC4)cccc3o2)o1`, for which the melting point lay in the range of 125 to 127 °C. Take `O=C(C=Cc1cccc(O)c1)C=Cc1cccc(O)c1`: the melting point was in the range of 190 to 195 °C. The same measure for `CCCCC1C=C(N)c2ncccc2N1CC(C)(C)O` (stereo unspecified): 177 to 179 °C; for `Nc1ccc(Cn2c(=O)c3c(-c4noc(C5CC5)n4)ncn3c3ccccc32)cc1`: 246 to 248 °C.

`Nc1nc2ncn(O)c2c(=O)[nH]1` yielded a melting point above 300 °C. The same measure for `CC(O)=C(C#N)C(=O)Nc1cccc(Cl)c1`: 184 to 187 °C; for `N#Cc1cccc(C(CC(=O)c2ccc(F)cc2)CC(=O)c2ccc(F)cc2)c1`: 120 to 123 °C. In turn, `COc1ccc(Sc2nc(-c3ccc(OC)cc3)c(-c3ccc(OC)cc3)[nH]2)cc1` yielded a melting point of 148 °C. The same measure for `O=[PH](c1ccc(N2CCCC2)cc1)c1ccc(N2CCCC2)cc1`: 199 °C; for `CC1C(=O)N(c2ccccc2)C(=S)N1c1ccc(Oc2ccccc2Cl)cc1` (stereo unspecified): 108 °C; for `O=C(/C=C/c1ccccc1F)N1CCN(C(=O)c2cc(C(F)(F)F)cc(C(F)(F)F)c2)[C@H](Cc2c[nH]c3ccccc23)C1`: 110 to 114 °C. `NC(Cc1cnc2ccccc2c1)C(=O)O` (stereo unspecified): the melting point lay within 241 to 243 °C.

On to `Cc1ccc(S(=O)(=O)C2(CCCC#Cc3cccnc3)SC(=O)NC2=O)cc1` (stereo unspecified), for which the melting point was 173 to 176 °C. Molecule `CCOC(=O)Cc1ccnc(-c2nn(C(C)(C)C)c(N)c2C#N)c1` yielded a melting point of 141 to 143 °C. Molecule `CCn1c(=O)c2c(nc(/C=C/c3ccc4c(c3)OCO4)n2C)n(CC)c1=O` gave a melting point of 219 to 220 °C. Consider `CC1c2cccn2-c2ccc(Br)cc2N1S(=O)(=O)c1ccc(O)cc1` (stereo unspecified), for which the melting point lay in the range of 204 to 206 °C. `CCOC(=O)c1c(COC(C)=O)cccc1S(=O)(=O)NC(C)(C)C` yielded a melting point of 81 to 82 °C.

`COCc1cc2c(cc1O)CCC1C2CCC2(C)C(=O)CCC12` (stereo unspecified) had a melting point of 149 to 151 °C. On to `COCCOc1ccc2c(c1)C1(CO2)C(=O)N(Cc2ccccn2)c2ccccc21` (stereo unspecified), for which the melting point lay within 140 to 142 °C.

For `Nc1nc(NCc2ccccc2)nc(-c2cc(Cl)ccc2Cl)n1`, the melting point fell in the range of 200 to 201 °C.

As to `CCCOc1ccc(/C=C/C(=O)OC(C)(C)C)cc1-c1nc2c(c(C)nn2CCC)c(=O)[nH]1`, the melting point was in the range of 181 to 182 °C. With `CCC(Oc1cccc(C)c1C)C1=NCCN1C=Nc1ccccn1` (stereo unspecified), the melting point fell in the range of 108 to 110 °C. On to `COc1cc2c3c(nc4ccc(Cl)cc4c3c1)-c1ccc(Cl)cc1N2C`, for which the melting point fell in the range of 287 to 289 °C. `Cc1c(CCNC(=S)Nc2nccs2)cccc1C(F)(F)F` came in with a melting point of 158 to 159 °C. `Cc1cc2ncnn2nc1OCC(C)(C)CCCS(N)(=O)=O`: the melting point lay in the range of 171 to 172 °C. On to `CCOC(=O)CCCCCCOc1cc2c(c(Cl)c1Cl)C(=O)C(C)(C1CCCC1)C2` (stereo unspecified), for which the melting point lay in the range of 47 to 50 °C.

Take `CCCCCCOc1cc(-c2ccc3cc4c(cc3c2)C(C)(C)CCC4(C)C)ccc1C(=O)OC`: the melting point lay within 102 to 104 °C. Then `CC1=C(C(=O)OC(CN2CCCCC2)c2ccccc2)C(c2cccc([N+](=O)[O-])c2)n2nccc2N1` (stereo unspecified), with 92 to 93 °C. `CC[C@H]1CC[C@H](c2ccc(CCc3ccc(OC(F)F)cc3)cc2)CC1`: the melting point was determined as 51 °C.

In the case of `CCCOc1ccc(S(=O)(=O)NCc2ccncc2)cc1-c1nc2cc3nc[nH]c3cc2c(=O)[nH]1`, the melting point was in the range of 189 to 190 °C.

The molecule `O=C1NCC2=C1c1ccc(Cl)cc1C(c1ccccc1Cl)=NC2` came in with a melting point of 195 to 197 °C. Molecule `COC(=O)c1ccc(OCCCCCCc2cccc(OCc3ccccc3)c2OCc2ccccc2)c(Cl)c1` came in with a melting point of 68 to 69 °C. In turn, `CCCCCCCCCCCCCCCCCCCCCC(=O)Nc1ccc(NC(=O)NS(=O)(=O)c2ccc3ccccc3c2)cc1` had a melting point of 179 °C.

As to `Cn1nc(Sc2cc(C(F)(F)F)ccc2C#N)n(C)c1=O`, the melting point stood at 113 °C. Consider `O=c1[nH]c2cc(Cl)ccc2c(=O)n1Cc1ccc(Br)cc1F`, for which the melting point lay within 288 to 289 °C. Consider `C=CCCn1cnc2c1c(=O)n(CCCC)c(=O)n2CCCC`, for which the melting point is 41 to 42 °C. In the case of `Cn1cc(OS(C)(=O)=O)c(=O)c2ccc(C(F)(F)F)cc21`, the melting point was found to be 218 °C. With `Nc1cc(=O)n(Cc2ccc(Cl)c(Br)c2)[nH]1`, the melting point lay within 171 to 172 °C.

`N#CN=C(Nc1cccnc1)NC(CC12CC3CC(CC(C3)C1)C2)NC(=O)c1ccc(Cl)cc1` (stereo unspecified) came in with a melting point of 202 to 203 °C. Then `COCC(=O)OC[C@@H]1CC(c2ccc(-c3ccc(N4C[C@H](Cn5ccnn5)OC4=O)cc3F)cn2)=NO1`, with 170 °C. As to `CS(=O)(=O)c1nc2c([nH]1)N(Cc1ccc(Cl)cc1)C1NCCN1C2=O` (stereo unspecified), the melting point was 282 to 284 °C. For `CCn1c(COc2ccc(NC(=O)c3cc(F)cc(N4CCOCC4)c3)c3ccccc23)n[nH]c1=O`, the melting point was found to be 260 °C.

In turn, `CC(=O)C1=CCC2C3CCC4CC(O)C(Cl)CC4(C)C3CCC12C` (stereo unspecified) registered a melting point of 246 to 252 °C. For `CC(=O)c1cnc2onc(C)c2c1O`, the melting point was determined as 162 °C. `Cc1c(CO)c(CO)c2n1Cc1c(c3ccccc3n1C)C2` registered a melting point of 200 to 201 °C.

`CCOC(=O)CS(=O)(=O)Cl`: the melting point was 74 to 77 °C. For `COCCN(CCOC)c1ccc(Nc2ncc3c(C)c(Br)c(=O)n(C4CCCC4)c3n2)nc1`, the melting point was 94 to 95 °C. The same measure for `CC(=O)Oc1c(C)nc(N(C)C)nc1-c1ccccc1`: 126 to 128 °C; for `N#Cc1ccc(CC23CCCN2C(=O)N(c2cc(Cl)cc(-n4cccc4C=O)c2)C3=O)cc1` (stereo unspecified): 110 °C.

`O=C(CCCNc1c(C(=O)O)[nH]c2cc(Cl)cc(Cl)c12)c1ccccc1` registered a melting point of 254 to 256 °C. Molecule `CN(C)c1ccc2c(c1)Sc1cc(N(C)C=O)ccc1N2C=O` showed a melting point of 139 to 143 °C. `Cc1c(Br)ccc(N)c1S(C)(=O)=O`: the melting point fell in the range of 103 to 106 °C. `CON=Cc1cc(-n2c(=O)cc(C(F)(F)F)[nH]c2=O)c(F)cc1Cl` displayed a melting point of 176 to 177 °C. Then `CCCc1cccc2c(/C=C(\C)C(=O)O)cc(OC)c(OCOC)c12`, with 67 to 68 °C; and `CS(=O)(=O)c1ccc(-n2nc(C(F)(F)F)cc2-c2ccc(-c3cscn3)c(F)c2)cc1`, with 176 to 178 °C; and `COC(=O)c1ccccc1-c1ncccc1N`, with 188 to 189 °C.

`CCCc1cc(C(O)(CC)CC)ccc1-c1cc(O)ccc1CC` had a melting point of 130 °C.

With `Cc1[nH]c(C(=O)N2CCC(C(=O)N(C)CCN(C)C)CC2)c(C)c1-c1nc2ccc(C(=O)c3ccccc3)cc2[nH]1`, the melting point lay within 264 to 266 °C.

`Nc1ccc(-c2noc(-c3cnn4c(C(F)(F)F)cc(-c5ccc(Cl)cc5)nc34)n2)cn1` yielded a melting point of 253 °C. The same measure for `CNC(C(=O)NC(N)=O)C(=S)c1cccc2c(C(F)(F)F)c(OC)ccc12` (stereo unspecified): 203 to 204 °C. `CCCC(=O)c1cnc2c(OC)cccc2c1Nc1ccc(CO)cc1` gave a melting point of 187 to 189 °C.

As for `COc1ccc(N2CCN(c3c(C)c(C)c4c(c3C)C(c3cccnc3)C(C)(C)O4)CC2)cc1` (stereo unspecified), the melting point lay within 159 to 161 °C. The molecule `O=C(COCC(=O)Nc1ccc([N+](=O)[O-])c(C(F)(F)F)c1)Nc1ccc([N+](=O)[O-])c(C(F)(F)F)c1` had a melting point of 137 to 138 °C.

Consider `CC(CNC(=O)N(CCN(C)C(=O)OC(C)(C)C)CCC12CC3CC(CC(C3)C1)C2)Cc1ccncc1` (single isomer, unassigned; (+)), for which the melting point lay within 123 to 124 °C.

As to `COc1ccc(C(=O)N2c3ccccc3C(n3c4ccccc4c4ccccc43)CC2CCCCCN2CCC(c3cccc(C(F)(F)F)c3)CC2)cc1OC` (stereo unspecified), the melting point fell in the range of 149 to 150 °C. For the molecule `CCOC(=O)C(C)CSCC(NC(=O)CCC(N)C(=O)O)C(=O)NCC(=O)O` (stereo unspecified), the melting point was in the range of 193 to 194 °C. `O=C(Nc1ccc(F)cc1)c1ccccc1` showed a melting point of 167 to 168 °C. `CC(C)c1cccc(C(C)C)c1NC(=O)NCC1(c2ccccc2)CCCCC1` returned a melting point of 168 to 169 °C. In turn, `CCOC(=O)N1CC=C(c2cc(F)c(C#N)cc2F)CC1` yielded a melting point of 85 to 87 °C. Turning to `N#Cc1nn(-c2c(Cl)cc(C(F)(F)F)cc2Cl)cc1C1(C(F)(F)C(F)(F)F)CC1`, the melting point lay in the range of 105 to 106 °C.

As to `Nc1c(C#Cc2ccccc2)cnnc1C1CN2CCNC1CC2` (stereo unspecified), the melting point lay within 182 to 183 °C.
